Calls of active or inactive are those of the source. The calls are words filed in the database; no cut-off is given here.
Experiments:
SH-SY5Y = assay: Induction of neuronal differentiation in human SH-SY5Y cells assessed as increase in RARbeta mRNA expression at 0.001 to 1 uM measured after 8 hrs by RT-PCR analysis; format: functional, cell-based
Homo sapiens = organism: Homo sapiens; assay: Induction of neuronal differentiation in human TERA2.cl.SP12 cells assessed as small and scattered colonies of TUJ-1 positive cells at 10 uM measured measured after 2 weeks by immunofluorescence method; format: functional, cell-based

SMILES	Activity (SH-SY5Y)	Activity (Homo sapiens)
CCOCCOc1nc(-c2ccc(C(=O)O)cc2)sc1C	Active	Active
CCOC(=O)c1ccc(-c2nc(-c3ccccc3)c(C)s2)cc1	–	Active
CC1=C(/C=C/C(C)=C/C=C/C(C)=C/C(=O)O)C(C)(C)CCC1	Active	–

From ChEMBL document CHEMBL4219070, “Probing biological activity through structural modelling of ligand-receptor interactions of 2,4-disubstituted thiazole retinoids” (Bioorg Med Chem, 2018)
